Like-named read-outs stand apart in the source and are kept apart here.
Experiments:
[1] = from PAMPA-BBB Pe
Description: (§1) Afterwards, the acceptor filter plate was carefully placed on the donor plate to make the coated membrane touch both donor solution and acceptor buffer. […] Pe was calculated by the following expression: Pe = {−VdVa/[(Vd + Va)At]}ln (1-drugacceptor/drugequilibrium), where Vd is the volume of donor well, Va is volume in acceptor well, A is the filter area, t is the permeation time, drugacceptor is the absorbance obtained in the acceptor well and drugequilibrium is the theoretical equilibrium absorbance. Each compound was analysed at five wavelengths in four wells at least three independent runs, and the results were expressed as mean ± SD.

eqBuChE = biological target: T1, eqBuChE (Equus caballus, UniProt P81908); assay: In vitro inhibition of eqBuChE (Ellman method); format: biochemical, equine; conditions: for inhibition at 10 µM: read-out: eqBuChE Inhibition (%)
T1 construct: eqBuChE (from equine serum); purchased Sigma-Aldrich (St. Louis, MO, USA); host or cells: equine serum
Description: (§2) The in vitro inhibitory activities of test compounds against AChE and BuChE were determined by the spectrophotometric method of Ellman[25]. […] For each assay, 160 μL of 1.5 mM DTNB, 50 μL of AChE (0.22 U/mL for eeAChE; 0.05 U/mL for hAChE) or eqBuChE (0.12 U/mL) were incubated with 10 μL of different concentrations of test compounds at 37 °C for 6 min.

in vitro = conditions: PAMPA
Description: as §1

eeAChE = biological target: T2, eeAChE (Electrophorus electricus, UniProt O42275); assay: In vitro inhibition of eeAChE (Ellman method); format: biochemical, electric eel; conditions: for inhibition at 10 µM: read-out: eeAChE Inhibition (%), inhibitor at 10 μM
T2 construct: eeAChE (from electric eel); purchased Sigma-Aldrich (St. Louis, MO, USA); host or cells: electric eel
Description: as §2

[2] = biological target: T3, AChE-induced Aβ1-42 aggregation (Electrophorus electricus, UniProt O42275); assay: Inhibition of AChE-induced Aβ1-42 aggregation (ThT assay); format: biochemical; conditions: inhibitor 100 μM; thioflavin-T fluorescence
T3 construct: eeAChE (from electric eel); purchased eeAChE: Sigma-Aldrich (St. Louis, MO, USA); Aβ1-42: Royobiotech Co., Ltd (Shanghai, China)
Description: 1, 1, 1, 3, 3, 3-hexafluoro-2-propanol (HFIP) and Thioflavin T (ThT) were obtained from TCI (Shanghai) Development. β-Amyloid1-42 (Aβ1-42), supplied as trifluoroacetate salt, and eeAChE were purchased from Royobiotech Co., Ltd (Shanghai, China) and Sigma-Aldrich (St. Louis, MO, USA), respectively. For co-incubation experiments, aliquots of Aβ1-42 peptide and AChE in presence or absence of the test compounds were incubated for 48 h at 37 °C. […] The percent inhibition of the AChE-induced Aβ aggregation due to the presence of inhibitor was calculated by the following formula: 100 – (IFi/IFo*100), where IFi and IFo are the fluorescence intensities obtained for Aβ1-42 aggregation in the presence and in the absence of inhibitor, respectively. Each assay was run in triplicate and each reaction was repeated at least three independent times.

hAChE = hAChE (Homo sapiens, UniProt P22303); assay: In vitro inhibition of hAChE (Ellman method); format: biochemical; design: Acetylcholinesterase (AChE, from electric eel and human erythrocytes); purchased Sigma-Aldrich (St. Louis, MO, USA); host or cells: human erythrocytes
Description: as §2

[3] = biological target: T4, self-induced Aβ1-42 aggregation (Homo sapiens, UniProt P05067); assay: Inhibition of self-induced Aβ1-42 aggregation (ThT assay); format: biochemical; conditions: read-out: Inhibition of Aβ1–42 aggregation (%) Self-induced
T4 construct: Aβ1-42 was obtained from Royobiotech Co., Ltd (Shanghai, China); purchased Royobiotech Co., Ltd (Shanghai, China)
Description: The inhibitory activities of compounds 4c-f and 9a-b on self-induced Aβ1-42 aggregation were also measured by the ThT assay. HFIP and ThT were purchased from TCI (Shanghai) Development. Aβ1-42 was obtained from Royobiotech Co., Ltd (Shanghai, China). The monomeric Aβ1-42 samples were prepared by HFIP and diluted with a 50 mM phosphate buffer (pH 7.4) to give a 25 μM solution. The test compound was dissolved in DMSO (250 μM) for storage and needed not to be diluted prior to use. […]. Then, 200 μL of 5 μM ThT in 50 mM glycine-NaOH buffer (pH 8.0) was added, and the percent inhibition was calculated by the method same as that of AChE-induced Aβ1–42 experiment.

[4] = means ± SD of three experiments

T2 sequence (O42275 24-633): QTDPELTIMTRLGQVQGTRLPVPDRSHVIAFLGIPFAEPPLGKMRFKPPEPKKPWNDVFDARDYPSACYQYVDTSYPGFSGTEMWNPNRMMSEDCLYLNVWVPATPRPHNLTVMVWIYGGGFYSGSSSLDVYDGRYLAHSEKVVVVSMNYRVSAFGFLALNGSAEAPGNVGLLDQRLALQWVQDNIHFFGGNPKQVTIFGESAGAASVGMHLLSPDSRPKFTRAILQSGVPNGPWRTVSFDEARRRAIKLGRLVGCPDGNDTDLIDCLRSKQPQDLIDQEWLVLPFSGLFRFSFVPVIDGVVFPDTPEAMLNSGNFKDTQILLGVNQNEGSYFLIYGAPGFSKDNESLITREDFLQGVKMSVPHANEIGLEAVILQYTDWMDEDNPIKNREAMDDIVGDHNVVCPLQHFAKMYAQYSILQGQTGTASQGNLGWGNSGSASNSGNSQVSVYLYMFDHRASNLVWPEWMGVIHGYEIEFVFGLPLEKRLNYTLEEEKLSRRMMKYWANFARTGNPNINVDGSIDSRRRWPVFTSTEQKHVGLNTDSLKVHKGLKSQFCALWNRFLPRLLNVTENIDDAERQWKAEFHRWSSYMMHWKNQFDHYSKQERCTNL
T3 sequence (O42275 24-633): as above
Sequence of hAChE (P22303 32-617 isoform P22303-2 limits assumed): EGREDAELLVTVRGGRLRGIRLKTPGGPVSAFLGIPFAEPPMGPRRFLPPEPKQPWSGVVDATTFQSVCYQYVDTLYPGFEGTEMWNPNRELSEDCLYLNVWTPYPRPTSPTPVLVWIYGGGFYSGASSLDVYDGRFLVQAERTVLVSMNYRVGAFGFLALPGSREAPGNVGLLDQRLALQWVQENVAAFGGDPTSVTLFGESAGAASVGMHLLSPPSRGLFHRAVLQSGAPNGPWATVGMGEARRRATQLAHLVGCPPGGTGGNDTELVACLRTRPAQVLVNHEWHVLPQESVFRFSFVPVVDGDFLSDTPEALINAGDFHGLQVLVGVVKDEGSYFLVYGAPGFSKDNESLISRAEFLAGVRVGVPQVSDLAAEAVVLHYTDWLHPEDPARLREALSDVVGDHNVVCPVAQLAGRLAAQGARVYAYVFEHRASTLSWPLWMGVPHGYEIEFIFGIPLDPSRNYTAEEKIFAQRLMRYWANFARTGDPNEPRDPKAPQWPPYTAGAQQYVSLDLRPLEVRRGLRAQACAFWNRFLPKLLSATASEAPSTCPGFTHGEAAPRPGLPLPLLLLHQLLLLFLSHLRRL
T1 sequence (P81908 whole entry): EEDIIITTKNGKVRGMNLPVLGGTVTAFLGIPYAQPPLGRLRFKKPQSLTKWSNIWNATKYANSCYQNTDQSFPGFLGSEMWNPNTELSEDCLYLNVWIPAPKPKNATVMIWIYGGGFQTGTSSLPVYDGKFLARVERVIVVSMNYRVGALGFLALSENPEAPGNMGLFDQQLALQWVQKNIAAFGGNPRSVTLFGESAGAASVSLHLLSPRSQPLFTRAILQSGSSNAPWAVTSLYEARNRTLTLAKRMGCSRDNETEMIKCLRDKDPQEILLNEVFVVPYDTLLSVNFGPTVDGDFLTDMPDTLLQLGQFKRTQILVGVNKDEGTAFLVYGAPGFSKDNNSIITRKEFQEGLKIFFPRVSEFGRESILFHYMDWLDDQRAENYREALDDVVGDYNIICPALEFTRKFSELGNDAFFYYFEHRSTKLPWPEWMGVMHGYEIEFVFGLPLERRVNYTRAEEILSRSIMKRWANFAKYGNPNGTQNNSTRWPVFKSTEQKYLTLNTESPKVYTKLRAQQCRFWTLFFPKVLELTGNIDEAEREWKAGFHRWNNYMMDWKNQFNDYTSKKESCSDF
T4 sequence (P05067 672-713): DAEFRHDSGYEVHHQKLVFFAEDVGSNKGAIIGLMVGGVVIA

## O=c1ccc2ccc(OCCSC(=S)N3CCCCC3)cc2[nH]1 [4a, 2-((2-oxo-1,2-dihydroquinolin-7-yl)oxy)ethyl piperidine-1-carbodithioate]
[1]
  Prediction of penetration into CNS: CNS+ (CNS + is predicted as high BBB permeation with Pe (×10^6 cm/s) > 3.33)
eqBuChE
  inhibition at 10 µM: 16.7 ± 2.36%
In vitro
  Papp at 18 h, 25 μg/mL: 8.57 ± 1.23 ×10⁻⁶ cm/s
eeAChE; [4]
  inhibition at 10 µM: 45.3 ± 0.35%

## O=c1ccc2ccc(OCCCSC(=S)N3CCCCC3)cc2[nH]1 [4b, 3-((2-oxo-1,2-dihydroquinolin-7-yl)oxy)propyl piperidine-1-carbodithioate]
[1]
  Prediction of penetration into CNS: CNS+ (CNS + is predicted as high BBB permeation with Pe (×10^6 cm/s) > 3.33)
eqBuChE
  inhibition at 10 µM: 16.6 ± 4.01%
In vitro
  Papp at 18 h, 25 μg/mL: 8.78 ± 1.11 ×10⁻⁶ cm/s
eeAChE
  IC50: 3960 ± 710 nM

## O=c1ccc2ccc(OCCCCCSC(=S)N3CCCCC3)cc2[nH]1 [4d, 5-((2-oxo-1,2-dihydroquinolin-7-yl)oxy)pentyl piperidine-1-carbodithioate]
[2]
  inhibition at 100 µM: 24.1 ± 3.04%
[1]
  Prediction of penetration into CNS: CNS+ (CNS + is predicted as high BBB permeation with Pe (×10^6 cm/s) > 3.33)
hAChE
  IC50: 570 ± 10 nM
eqBuChE
  inhibition at 10 µM: 20.9 ± 2.61%
In vitro
  Papp at 18 h, 25 μg/mL: 8.82 ± 1.34 ×10⁻⁶ cm/s
[3]
  inhibition at 25 µM: 26 ± 3.01%
eeAChE
  IC50: 240 ± 20 nM

## O=c1ccc2ccc(OCCCCCCSC(=S)N3CCCCC3)cc2[nH]1 [4e, 6-((2-oxo-1,2-dihydroquinolin-7-yl)oxy)hexyl piperidine-1-carbodithioate]
[2]
  inhibition at 100 µM: 20.3 ± 2.21%
[1]
  Prediction of penetration into CNS: CNS+ (CNS + is predicted as high BBB permeation with Pe (×10^6 cm/s) > 3.33)
hAChE
  IC50: 380 ± 20 nM
eqBuChE
  inhibition at 10 µM: 17.5 ± 2.17%
In vitro
  Papp at 18 h, 25 μg/mL: 9.85 ± 0.98 ×10⁻⁶ cm/s
[3]
  inhibition at 25 µM: 25.8 ± 1.43%
eeAChE
  IC50: 350 ± 20 nM

## CC1CCN(C(=S)SCCCCOc2ccc3ccc(=O)[nH]c3c2)CC1 [4f, 4-((2-oxo-1,2-dihydroquinolin-7-yl)oxy)butyl 4-methylpiperidine-1-carbodithio-ate]
[2]
  inhibition at 100 µM: 12.1 ± 3.18%
[1]
  Prediction of penetration into CNS: CNS+ (CNS + is predicted as high BBB permeation with Pe (×10^6 cm/s) > 3.33)
hAChE
  IC50: 1210 ± 330 nM
eqBuChE
  inhibition at 10 µM: 37.2 ± 1.22%
In vitro
  Papp at 18 h, 25 μg/mL: 6.3 ± 0.86 ×10⁻⁶ cm/s
[3]
  inhibition at 25 µM: 20.4 ± 3.22%
eeAChE
  IC50: 690 ± 220 nM
eeAChE; ratio of eeAChE IC50 values
  fold less inhibitory activity than compound 4c on AChE: 3 fold

## CC(C)C1CCN(C(=S)SCCCCOc2ccc3ccc(=O)[nH]c3c2)CC1 [4g, 4-((2-oxo-1,2-dihydroquinolin-7-yl)oxy)butyl 4-isopropylpiperidine-1-carbodithi-oate]
[1]
  Prediction of penetration into CNS: CNS+ (CNS + is predicted as high BBB permeation with Pe (×10^6 cm/s) > 3.33)
eqBuChE
  inhibition at 10 µM: 31.4 ± 3.15%
In vitro
  Papp at 18 h, 25 μg/mL: 7.14 ± 1.97 ×10⁻⁶ cm/s
eeAChE
  IC50: 9610 ± 1120 nM

## O=c1ccc2ccc(OCCCCSC(=S)N3CCC(N4CCCCC4)CC3)cc2[nH]1 [4h, 4-((2-oxo-1,2-dihydroquinolin-7-yl)oxy)butyl [1,4′-bipiperidine]-1′-carbodithio-ate]
[1]
  Prediction of penetration into CNS: CNS+ (CNS + is predicted as high BBB permeation with Pe (×10^6 cm/s) > 3.33)
eqBuChE
  IC50: 2000 ± 230 nM
In vitro
  Papp at 18 h, 25 μg/mL: 6.42 ± 1.02 ×10⁻⁶ cm/s
eeAChE
  IC50: 3800 ± 350 nM

## O=c1ccc2ccc(OCCCCSC(=S)N3CCC(O)CC3)cc2[nH]1 [4i, 4-((2-oxo-1,2-dihydroquinolin-7-yl)oxy)butyl 4-hydroxypiperidine-1-carbodithio-ate]
[1]
  Prediction of penetration into CNS: CNS± (CNS ± is uncertain for BBB permeation with 1.51 < Pe (×10^6 cm/s) < 3.33)
eqBuChE
  inhibition at 10 µM: 15.8 ± 2.45%
In vitro
  Papp at 18 h, 25 μg/mL: 2.83 ± 0.65 ×10⁻⁶ cm/s
eeAChE; [4]
  inhibition at 10 µM: 20.2 ± 3.27%

## O=c1ccc2ccc(OCCCCSC(=S)N3CCC(CO)CC3)cc2[nH]1 [4j, 4-((2-oxo-1,2-dihydroquinolin-7-yl)oxy)butyl 4-(hydroxymethyl)piperidine-1-ca-rbodithioate]
[1]
  Prediction of penetration into CNS: CNS± (CNS ± is uncertain for BBB permeation with 1.51 < Pe (×10^6 cm/s) < 3.33)
eqBuChE
  inhibition at 10 µM: 23.9 ± 2.03%
In vitro
  Papp at 18 h, 25 μg/mL: 3.25 ± 0.82 ×10⁻⁶ cm/s
eeAChE; [4]
  inhibition at 10 µM: 14.5 ± 2.44%

## CN1CCN(C(=S)SCCCCOc2ccc3ccc(=O)[nH]c3c2)CC1 [4k, 4-((2-oxo-1,2-dihydroquinolin-7-yl)oxy)butyl 4-methylpiperazine-1-car-bodithioate]
[1]
  Prediction of penetration into CNS: CNS+ (CNS + is predicted as high BBB permeation with Pe (×10^6 cm/s) > 3.33)
eqBuChE
  inhibition at 10 µM: 28.6 ± 3.44%
In vitro
  Papp at 18 h, 25 μg/mL: 4.54 ± 0.84 ×10⁻⁶ cm/s
eeAChE; [4]
  inhibition at 10 µM: 23.1 ± 5.54%

## O=c1ccc2ccc(OCCCCSC(=S)N3CCOCC3)cc2[nH]1 [4l, 4-((2-oxo-1,2-dihydroquinolin-7-yl)oxy)butyl morpholine-4-carbodithioate]
[1]
  Prediction of penetration into CNS: CNS+ (CNS + is predicted as high BBB permeation with Pe (×10^6 cm/s) > 3.33)
eqBuChE
  inhibition at 10 µM: 30.5 ± 4.11%
In vitro
  Papp at 18 h, 25 μg/mL: 7.35 ± 1.05 ×10⁻⁶ cm/s
eeAChE; [4]
  inhibition at 10 µM: 12.3 ± 1.76%

## O=c1ccc2ccc(OCCCCSC(=S)N3CCCC3)cc2[nH]1 [4m, 4-((2-oxo-1,2-dihydroquinolin-7-yl)oxy)butyl pyrrolidine-1-carbodithioate]
[1]
  Prediction of penetration into CNS: CNS+ (CNS + is predicted as high BBB permeation with Pe (×10^6 cm/s) > 3.33)
eqBuChE
  inhibition at 10 µM: 7.63 ± 0.92%
In vitro
  Papp at 18 h, 25 μg/mL: 10 ± 2.63 ×10⁻⁶ cm/s
eeAChE; inhibitor at 10 μM, means ± SD of three experiments, 10 µM
  eeAChE Inhibition (%): 31.43 ± 1.65%
eeAChE; [4]
  inhibition at 10 µM: < 50%

## Cc1cc(=O)[nH]c2cc(OCCCCSC(=S)N3CCCCC3)ccc12 [9a, 4-((4-methyl-2-oxo-1,2-dihydroquinolin-7-yl)oxy)butylpiperidine-1-carbodithioate]
[2]
  inhibition at 100 µM: 14.2 ± 2.85%
[1]
  Prediction of penetration into CNS: CNS+ (CNS + is predicted as high BBB permeation with Pe (×10^6 cm/s) > 3.33)
hAChE
  IC50: 760 ± 100 nM
eqBuChE
  inhibition at 10 µM: 18.3 ± 3.15%
In vitro
  Papp at 18 h, 25 μg/mL: 8.79 ± 2.1 ×10⁻⁶ cm/s
[3]
  inhibition at 25 µM: 33.4 ± 4.85%
eeAChE
  IC50: 300 ± 120 nM

## Cc1c(C)c2ccc(OCCCCSC(=S)N3CCCCC3)cc2[nH]c1=O [9b, 4-((3,4-dimethyl-2-oxo-1,2-dihydroquinolin-7-yl)oxy)butylpiperidine-1-carbodithioate]
[2]
  inhibition at 100 µM: 24.4 ± 3.03%
[1]
  Prediction of penetration into CNS: CNS+ (CNS + is predicted as high BBB permeation with Pe (×10^6 cm/s) > 3.33)
hAChE
  IC50: 390 ± 10 nM
eqBuChE
  inhibition at 10 µM: 21.2 ± 1.6%
In vitro
  Papp at 18 h, 25 μg/mL: 8.67 ± 1.76 ×10⁻⁶ cm/s
[3]
  inhibition at 25 µM: 35.3 ± 2.17%
eeAChE
  IC50: 340 ± 10 nM

## COc1cc(/C=C/C(=O)CC(=O)/C=C/c2ccc(O)c(OC)c2)ccc1O [Curcumin, reference compound]
[3]; inhibitor 25 μM, thioflavin-T fluorescence
  inhibition at 25 µM: 37.3 ± 2.76%

## CC(=O)[C@H]1CC[C@H]2[C@@H]3CCC4=CC(=O)CC[C@]4(C)[C@H]3CC[C@]12C [Progesterone, reference compound]
In vitro
  Papp at 18 h, 25 μg/mL: 10.4 ± 1.9 ×10⁻⁶ cm/s

Source: PMC6844382, “Design, synthesis and evaluation of quinolinone derivatives containing dithiocarbamate moiety as multifunctional AChE inhibitors for the treatment of Alzheimer’s disease” (Journal of Enzyme Inhibition and Medicinal Chemistry, 2019)
